Consider 28 molecules from patent publication US20120202794A1 (priority 2011, published 2012).

Molecules are shown by their SMILES.

The term EC90 denotes the concentration at which the effect reaches the 90% level.

For one series, the system named is HCV Replicon 1b. Description: HCV inhibition assay, HCV replicon 1b (Clone A or ET-lunet cells; RT-PCR or luciferase reporter). The series is classed as cell-based. As to conditions: Hepatitis C virus, 96 h, HCV replicon 1b; 4 days incubation; read-out: Replicon 1b potency EC90. The gist of the method: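 Inhibition read either as luciferase signal (ET replicon) or as HCV 5′-NTR RNA by RT-PCR relative to rRNA, % = (1−2^−ΔΔCt)×100, against DMSO controls, giving EC50 and EC90. Cells: Clone A or ET-lunet, seeded 1500 or 3000/well, exposed 4 days at 37 °C, 5% CO2, 0.5% DMSO.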
In general terms: In antiviral work, replicon cells carry a viral genome segment that copies itself.

The nature of series [1]: Cell cytotoxicity assay (MTS), CC90 as reported in Table 1, cell line not stated. As to conditions: human; MTS assay; 8 days incubation; cell line not given. The series is classed as cell-based. A digest of the protocol:
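MTS read-out (490 nm, 2 h dye step) after 8-day exposure at 37° C. Huh7, HepG2, BxPC3 were seeded at 2×10^3 and CEM at 5×10^3 cells/well, with compound serially diluted from 100 μM. CC90 comes from comparison with untreated control wells.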

For `CC(C)(C)C[C@H]1CN(C(=O)[C@@H]2C[C@H]2c2ccccc2)[C@@H](CC(C)(C)C)C(=O)N1` [Compound 281, (3S,6S)-3,6-dineopentyl-4-((1R,2R)-2-phenylcyclopropanecarbonyl)-piperazin-2-one], in the series on HCV Replicon 1b, the EC90 was above 10 µM. In addition, in series [1], the CC90 at 8 days is above 10 µM.

`CCc1ccc(-c2cc(C(=O)N3C[C@H](CC(C)C)NC(=O)[C@@H]3CC(C)C)no2)cc1` [Compound 283, (3S,6S)-4-(5-(4-ethylphenyl)isoxazole-3-carbonyl)-3,6-diisobutylpiperazin-2-one]: the EC90 with HCV Replicon 1b is 8.75 µM. Moreover, the CC90 at 8 days in series [1] was above 10 µM.

For the molecule `CC(C)C[C@H]1CN(C(=O)c2cc(-c3ccc(C4CC4)cc3)on2)[C@@H](CC(C)C)C(=O)N1` [Compound 284, (3S,6S)-4-(5-(4-cyclopropylphenyl)isoxazole-3-carbonyl)-3,6-diisobutylpiperazin-2-one], the EC90 with HCV Replicon 1b was above 10 µM. Also, in series [1], the CC90 at 8 days is above 10 µM.

As for `COc1ccc2c(c1)CCc1cc(C(=O)N3C[C@H](CC(C)C)NC(=O)[C@@H]3CC(C)C)sc1-2` [Compound 286, (3S,6S)-3,6-diisobutyl-4-(7-methoxy-4,5-dihydronaphtho[1,2-b]thiophene-2-carbonyl)piperazin-2-one], the EC90 with HCV Replicon 1b was 3.91 µM. The CC90 at 8 days in series [1] was above 10 µM.

Take `CC(C)C[C@H]1CN(C(=O)c2cc(-c3cc(F)cc(F)c3)on2)[C@@H](CC(C)C)C(=O)N1` [Compound 287, (3S,6S)-4-(5-(3,5-difluorophenyl)isoxazole-3-carbonyl)-3,6-diisobutylpiperazin-2-one]: the EC90 in the series on HCV Replicon 1b was 3.57 µM. Moreover, the CC90 at 8 days in series [1] is above 10 µM.

In the case of `CC(C)C[C@H]1C(=O)N[C@@H](CC2CC2)CN1C(=O)c1cc(-c2ccc(F)cc2F)on1` [Compound 288, (3S,6S)-6-(cyclopropylmethyl)-4-(5-(2,4-difluorophenyl)isoxazole-3-carbonyl)-3-isobutylpiperazin-2-one], the EC90 in the series on HCV Replicon 1b stood at 1.6 µM. In addition, the CC90 at 8 days in series [1] was above 10 µM.

Regarding `COc1ccc2c(c1)CCc1c(C(=O)N3C[C@H](CC(C)C)NC(=O)[C@@H]3CC(C)C)noc1-2` [Compound 289, (3S,6S)-3,6-diisobutyl-4-(7-methoxy-4,5-dihydronaphtho[2,1-d]isoxazole-3-carbonyl)piperazin-2-one], the EC90 with HCV Replicon 1b is 5.01 µM. In series [1], this molecule yielded a CC90 at 8 days above 10 µM.

As to `CCC[C@H]1CN(C(=O)c2noc(-c3ccc(F)cc3)n2)[C@@H](CC(C)C)C(=O)N1` [Compound 290, (3S,6S)-4-(5-(4-fluorophenyl)-1,2,4-oxadiazole-3-carbonyl)-3-isobutyl-6-propylpiperazin-2-one], in the series with HCV Replicon 1b, the EC90 is 0.14 µM. Moreover, the CC90 at 8 days in series [1] was above 10 µM.

As to `CC(C)C[C@H]1C(=O)N[C@@H](C2CCCCC2)CN1C(=O)c1noc(-c2ccc(F)cc2)n1` [Compound 291, (3S,6S)-6-cyclohexyl-4-(5-(4-fluorophenyl)-1,2,4-oxadiazole-3-carbonyl)-3-isobutylpiperazin-2-one], the EC90 in the series with HCV Replicon 1b is 0.33 µM. This molecule also registered a CC90 at 8 days in series [1] above 10 µM.

With `CC(C)C[C@H]1CN(C(=O)c2noc(-c3ccc(F)cc3)n2)[C@@H](CC(C)C)C(=O)N1` [Compound 293, (3S,6S)-4-(5-(4-Fluorophenyl)-1,2,4-oxadiazole-3-carbonyl)-3,6-diisobutylpiperazin-2-one], the EC90 in the series with HCV Replicon 1b came to 0.27 µM. This molecule gave a CC90 at 8 days in series [1] above 10 µM.

`CC(C)C[C@H]1C(=O)N[C@@H](C2CCCC2)CN1C(=O)c1noc(-c2ccc(F)cc2)n1` [Compound 294, (3S,6S)-6-Cyclopentyl-4-(5-(4-fluorophenyl)-1,2,4-oxadiazole-3-carbonyl)-3-isobutylpiperazin-2-one]: the EC90 with HCV Replicon 1b was determined as 0.35 µM. In series [1], this molecule displayed a CC90 at 8 days above 10 µM.

For `CC(C)C[C@H]1C(=O)N[C@@H](C(C)C)CN1C(=O)c1noc(-c2ccc(F)cc2)n1` [Compound 295, (3S,6S)-4-(5-(4-Fluorophenyl)-1,2,4-oxadiazole-3-carbonyl)-3-isobutyl-6-isopropylpiperazin-2-one], in the series with HCV Replicon 1b, the EC90 was 0.32 µM. Besides, in series [1], the CC90 at 8 days is above 10 µM.

Turning to `CSC[C@H]1CN(C(=O)c2noc(-c3ccc(F)cc3)n2)[C@@H](CC(C)C)C(=O)N1` [Compound 296, (3S,6R)-4-(5-(4-Fluorophenyl)-1,2,4-oxadiazole-3-carbonyl)-3-isobutyl-6-((methylthio)methyl)piperazin-2-one], the EC90 in the series on HCV Replicon 1b was 1.54 µM. The molecule also had a CC90 at 8 days in series [1] above 10 µM.

With `CC(C)C[C@H]1C(=O)N[C@@H](CC2CC2)CN1C(=O)[C@@H]1C[C@H]1c1ccc(F)cc1` [Compound 297, (3S,6S)-4-[(1R,2R)-2-(4-Fluoro-phenyl)-cyclopropanecarbonyl]-6-cyclopropyl-methyl-3-isobutyl-piperazin-2-one], the EC90 with HCV Replicon 1b was 0.41 µM. This molecule gave a CC90 at 8 days in series [1] above 10 µM.

For `CSC[C@H]1CN(C(=O)[C@@H]2C[C@H]2c2ccc(F)cc2)[C@@H](CC(C)C)C(=O)N1` [Compound 299, (3S,6R)-4-((1R,2R)-2-(4-fluorophenyl)cyclopropanecarbonyl)-3-isobutyl-6-((methylthio)methyl)piperazin-2-one], the EC90 in the series with HCV Replicon 1b turned out to be 0.63 µM. Besides, the CC90 at 8 days in series [1] is above 10 µM.

With `CSC[C@H]1CN(C(=O)[C@@H]2C[C@H]2c2ccc(Cl)cc2)[C@@H](CC(C)C)C(=O)N1` [Compound 300, (3S,6R)-4-((1R,2R)-2-(4-Chlorophenyl)cyclopropanecarbonyl)-3-isobutyl-6-((methylthio)methyl)piperazin-2-one], the EC90 in the series with HCV Replicon 1b was 0.78 µM. The CC90 at 8 days in series [1] was above 10 µM.

Take `CC(C)C[C@H]1CN(C(=O)c2noc3c2CCc2cc(F)ccc2-3)[C@@H](CC(C)C)C(=O)N1` [Compound 302, (3S,6S)-3,6-Diisobutyl-4-(7-fluoro-4,5-dihydronaphtho[2,1-d]isoxazole-3-carbonyl)piperazin-2-one]: the EC90 with HCV Replicon 1b amounted to 1.41 µM. In addition, the CC90 at 8 days in series [1] is above 10 µM.

In the case of `CCC[C@H]1CN(C(=O)c2noc3c2CCc2cc(F)ccc2-3)[C@@H](CC(C)C)C(=O)N1` [Compound 304, (3S,6S)-4-(7-fluoro-4,5-dihydronaphtho[2,1-d]isoxazole-3-carbonyl)-3-isobutyl-6-propylpiperazin-2-one], the EC90 with HCV Replicon 1b was found to be 0.64 µM. In series [1], this molecule had a CC90 at 8 days above 10 µM.

As to `CC(C)C[C@H]1C(=O)N[C@@H](C2CCCC2)CN1C(=O)c1noc2c1CCc1cc(F)ccc1-2` [Compound 305, (3S,6S)-6-cyclopentyl-4-(7-fluoro-4,5-dihydronaphtho[2,1-d]isoxazole-3-carbonyl)-3-isobutylpiperazin-2-one], the EC90 in the series on HCV Replicon 1b came to 1.61 µM. In series [1], the CC90 at 8 days was above 10 µM.

Turning to `CC(C)C[C@H]1C(=O)N[C@@H](c2ccccc2)CN1C(=O)c1noc2c1CCc1cc(F)ccc1-2` [Compound 306, (3S,6S)-4-(7-fluoro-4,5-dihydronaphtho[2,1-d]isoxazole-3-carbonyl)-3-isobutyl-6-phenylpiperazin-2-one], the EC90 in the series on HCV Replicon 1b stood at 0.89 µM. The molecule also returned a CC90 at 8 days in series [1] above 10 µM.

With `CC(C)C[C@H]1CN(C(=O)c2cc3c(s2)-c2ccccc2OC3)[C@@H](CC(C)C)C(=O)N1` [Compound 307, (3S,6S)-3,6-diisobutyl-4-(4H-thieno[3,2-c]chromene-2-carbonyl)piperazin-2-one], the EC90 with HCV Replicon 1b came out at 4.71 µM. In series [1], this molecule displayed a CC90 at 8 days above 10 µM.

Regarding `CC(C)C[C@H]1CN(C(=O)c2cc3c(s2)-c2cc(F)ccc2OC3)[C@@H](CC(C)C)C(=O)N1` [Compound 308, (3S,6S)-4-(8-fluoro-4H-thieno[3,2-c]chromene-2-carbonyl)-3,6-diisobutylpiperazin-2-one], the EC90 with HCV Replicon 1b is 6.48 µM. The CC90 at 8 days in series [1] is above 10 µM.

As to `CC(C)C[C@H]1C(=O)N[C@@H](C(C)C)CN1C(=O)[C@@H]1C[C@H]1c1ccc(F)c(F)c1` [Compound 309, (3S,6S)-4-[(1R,2R)-2-(3,4-Difluoro-phenyl)-cyclopropanecarbonyl]-3-isobutyl-6-isopropyl-piperazin-2-one], in the series on HCV Replicon 1b, the EC90 was determined as 0.78 µM. In addition, in series [1], the CC90 at 8 days was above 10 µM.

For the molecule `CC(C)C[C@H]1C(=O)N[C@@H](C2CCCC2)CN1C(=O)[C@@H]1C[C@H]1c1ccc(C(C)(C)C)cc1` [Compound 310, (3S,6S)-4-((1R,2R)-2-(4-(tert-butyl)phenyl)cyclopropanecarbonyl)-6-cyclopentyl-3-isobutylpiperazin-2-one], in the series with HCV Replicon 1b, the concentration for an effect of 90% (EC90) came out at 0.95 µM. The same molecule had a CC90 at 8 days in series [1] above 10 µM.

With `CC(C)C[C@H]1C(=O)N[C@@H](C(C)C)CN1C(=O)[C@@H]1C[C@H]1c1ccc(C(C)(C)C)cc1` [Compound 311, (3S,6S)-4-((1R,2R)-2-(4-(tert-butyl)phenyl)cyclopropanecarbonyl)-3-isobutyl-6-isopropylpiperazin-2-one], the EC90 with HCV Replicon 1b came out at 1.86 µM. Besides, the CC90 at 8 days in series [1] was above 10 µM.

With `CC(C)C[C@H]1C(=O)N[C@@H](c2ccccc2)CN1C(=O)[C@@H]1C[C@H]1c1ccc(C(C)(C)C)cc1` [Compound 312, (3S,6S)-4-((1R,2R)-2-(4-(tert-butyl)phenyl)cyclopropanecarbonyl)-3-isobutyl-6-phenylpiperazin-2-one], in the series with HCV Replicon 1b, the EC90 amounted to 1.13 µM. Besides, the CC90 at 8 days in series [1] is above 10 µM.

With `CCC[C@H]1CN(C(=O)c2cc(-c3ccc(Cl)cc3)no2)[C@@H](CC(C)C)C(=O)N1` [Compound 313, (3S,6S)-4-(3-(4-chlorophenyl)isoxazole-5-carbonyl)-3-isobutyl-6-propylpiperazin-2-one], in the series with HCV Replicon 1b, the concentration for an effect of 90% (EC90) was found to be 0.39 µM. The CC90 at 8 days in series [1] is above 10 µM.

As for `CC(C)C[C@H]1C(=O)N[C@@H](C2CCCC2)CN1C(=O)c1cc(-c2ccc(Cl)cc2)no1` [Compound 314, (3S,6S)-4-(3-(4-chlorophenyl)isoxazole-5-carbonyl)-6-cyclopentyl-3-isobutyl-piperazin-2-one], in the series on HCV Replicon 1b, the EC90 came to 0.51 µM. The CC90 at 8 days in series [1] was above 10 µM.
